What was measured:
Conditions in all cases: male, Sprague-Dawley, rat, iv, 1 mg/kg
[1] = in vivo
[2] = in vivo; remark: listed apart in the source
[3] = in vivo; remark: listed apart in the source
[4] = in vivo; remark: listed apart in the source

clearance at 8 h [1]: 14 mL/min/kg
half-life at 8 h [2]: 1.1 h
AUC(0-t) at 8 h [3]: 1190 ng·h/mL
Vd at 8 h [4]: 1.11 L/kg
Compound: COc1cc(F)ccc1-c1cc(Nc2cc(CS(C)(=N)=O)ccn2)ncc1F (centres undefined) [ENITOCICLIB]

Reference: ChEMBL document CHEMBL6109151, “Discovery of a Novel Dihydroisoquinolinone Derivative as a Potent CDK9 Inhibitor Capable of Overcoming L156F Mutant for the Treatment of Hematologic Malignancies” (J Med Chem, 2025)
